Activity calls are given as the source filed them. The rule behind the calls is not given here.
Key:
[1] = tested on: HCT-116; assay: Antiproliferative activity against human HCT116 cells assessed as reduction in cell viability after 48 hrs by MTT assay; type: functional, cell-based; settings: HCT-116, 48 h
[2] = tested on: HCT-116; assay: Radiosensitizer activity in human HCT116 cells assessed as reduction in cell survival at 4.75 uM incubated for 48 hrs under 2 to 6 Gy irradiation and measured after 7 days by crystal violet staining based by clonogenic assay; type: functional
[3] = tested on: HCT-116; assay: Down regulation of NFKappaB1 gene expression in human HCT116 cells at 9.5 uM by RT-PCR analysis relative to control; type: functional
[4] = tested on: HCT-116; assay: Down regulation of NFKappaB1 gene expression in human HCT116 cells at 35 uM under 2 Gy irradiation by RT-PCR analysis; type: functional, cell-based
[5] = tested on: HCT-116; assay: Effect on CCND1 gene expression in human HCT116 cells at 9.5 uM in presence of 2 Gy irradiation by RT-PCR analysis; type: functional, cell-based
[6] = tested on: HCT-116; assay: Down regulation of CCND1 gene expression in human HCT116 cells at 9.5 uM in presence of 2 Gy irradiation by RT-PCR analysis; type: functional, cell-based

With `C[C@H]1[C@H](C)CC[C@]2(C(=O)O)CC[C@]3(C)C(=CC[C@@H]4[C@@]5(C)CC[C@H](O)C(C)(C)[C@@H]5CC[C@]43C)[C@H]12` [URSOLIC ACID] the IC50 [1] was 19 µM, the Activity [2] was “Active” and the “fold change (FC)” value [3] was -7.05. The Activity [4] was “Active”, the Activity [5] was “inactive” and the Activity [6] was “Active”.
